Laboratory results: ChEMBL document CHEMBL1201862, “PubChem BioAssay data set” (2004)
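In this assay, cells in 96-well plates receive the compound at five concentrations for 48 hours. Endpoints are linearly interpolated between the surrounding concentrations. GI50 is the concentration that inhibits growth by half.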 Activity calls are given as the source filed them. No stated cut-off is given here; in the data, active = GI50 up to about 1.1 µM and inactive = higher.

Legend:
Assay in all cases: DTP human tumour cell line panel, 48 h
[1] = test system: LOX IMVI
[2] = test system: NCI-H460
[3] = test system: HCT-15
[4] = test system: M19-MEL
[5] = test system: OVCAR-5
[6] = test system: DLD-1
[7] = test system: IGROV-1
[8] = test system: HCC 2998
[9] = test system: K562
[10] = test system: HL-60
[11] = test system: SF-539
[12] = test system: SNB-75
[13] = test system: MOLT-4
[14] = test system: UACC-62
[15] = test system: OVCAR-8
[16] = test system: SNB-19
[17] = test system: OVCAR-4
[18] = test system: HCT-116
[19] = test system: SR
[20] = test system: A498

Row | Structure (SMILES) | GI50 [1] | GI50 [2] | GI50 [3] [µM] | GI50 [4] | GI50 [5] | GI50 [6] | GI50 [7] | GI50 [8] | GI50 [9] | GI50 [10] | GI50 [11] | GI50 [12] | GI50 [13] | GI50 [14] | GI50 [15] | GI50 [16] | GI50 [17] | GI50 [18] | GI50 [19] | GI50 [20]
1 | CC(C)=CC1CC(=O)C1(C)Sc1ccccc1 (stereo not given) | 17.3 µM (inactive) | 25 µM (inactive) | 17.3 | 27.5 µM (inactive) | > 100 µM (inactive) | 52.8 µM (inactive) | > 100 µM (inactive) | > 100 µM (inactive) | 21.9 µM (inactive) | 22.8 µM (inactive) | > 100 µM (inactive) | 65.2 µM (inactive) | 34.4 µM (inactive) | > 100 µM (inactive) | > 100 µM (inactive) | 67.8 µM (inactive) | > 100 µM (inactive) | 29.6 µM (inactive) | 20 µM (inactive) | 56.2 µM (inactive)
2 | OC1CCSc2ccccc21 (stereo not given) | > 100 µM (inactive) | > 100 µM (inactive) | > 100 | > 100 µM (inactive) | > 100 µM (inactive) | > 100 µM (inactive) | > 100 µM (inactive) | > 100 µM (inactive) | > 100 µM (inactive) | – | > 100 µM (inactive) | – | > 100 µM (inactive) | > 100 µM (inactive) | > 100 µM (inactive) | > 100 µM (inactive) | > 100 µM (inactive) | > 100 µM (inactive) | > 100 µM (inactive) | –
3 | O=C(Nc1ccc(Cl)cc1)C(=O)C(C(=O)c1ccccc1-c1ccccc1)C1OC(=O)c2ccccc21 (stereo not given) | 14.6 µM (inactive) | 19.4 µM (inactive) | 17.6 | 19.4 µM (inactive) | 28.3 µM (inactive) | 29 µM (inactive) | 29.1 µM (inactive) | 19.4 µM (inactive) | 34.4 µM (inactive) | 18.5 µM (inactive) | 22.5 µM (inactive) | 31.4 µM (inactive) | 29.4 µM (inactive) | 15.9 µM (inactive) | 15.5 µM (inactive) | 16.6 µM (inactive) | 35.5 µM (inactive) | 18.2 µM (inactive) | 17.6 µM (inactive) | 16.4 µM (inactive)
4 | Cc1ccc(C)c(NC(=O)C(=O)C(C(=O)c2ccc3ccccc3c2)C2OC(=O)c3ccccc32)c1 (stereo not given) | 13.6 µM (inactive) | 11.6 µM (inactive) | 21.5 | 12.7 µM (inactive) | 14.9 µM (inactive) | 23 µM (inactive) | 18.2 µM (inactive) | 15 µM (inactive) | 25.7 µM (inactive) | 17.1 µM (inactive) | 4.75 µM (inactive) | 12.4 µM (inactive) | 5.25 µM (inactive) | 14.6 µM (inactive) | 7.82 µM (inactive) | 8 µM (inactive) | 21.9 µM (inactive) | 12.3 µM (inactive) | 4.45 µM (inactive) | 16.8 µM (inactive)
5 | O=S(=O)(O)c1ccc(/N=N\c2ccc(/N=N\c3ccc(/C=C/c4ccc(/N=[N+](/[O-])c5ccc(/C=C/c6ccc(/N=N/c7ccc(/N=N\c8ccc(S(=O)(=O)O)cc8)cc7)cc6S(=O)(=O)O)c(S(=O)(=O)O)c5)cc4S(=O)(=O)O)c(S(=O)(=O)O)c3)cc2)cc1 | > 100 µM (inactive) | > 100 µM (inactive) | > 100 | > 100 µM (inactive) | > 100 µM (inactive) | > 100 µM (inactive) | > 100 µM (inactive) | > 100 µM (inactive) | > 100 µM (inactive) | > 100 µM (inactive) | > 100 µM (inactive) | 69.7 µM (inactive) | > 100 µM (inactive) | > 100 µM (inactive) | > 100 µM (inactive) | > 100 µM (inactive) | > 87.9 µM (inactive) | > 100 µM (inactive) | – | > 100 µM (inactive)
6 | CC[C@@]1(O)C[C@H](OC2CC(N(C)C)C(O)C(C)O2)c2c(cc3c(c2O)C(=O)c2c(O)ccc(O)c2C3=O)[C@H]1C(=O)OC (stereo not given in full) | 0.0229 µM (active) | 0.0221 µM (active) | 0.0452 | 0.0461 µM (active) | 0.141 µM (active) | 0.0514 µM (active) | 0.0468 µM (active) | 0.162 µM (active) | 0.0292 µM (active) | 0.0457 µM (active) | 0.0895 µM (active) | 0.0826 µM (active) | 0.0252 µM (active) | 0.0451 µM (active) | 0.0239 µM (active) | 0.0991 µM (active) | 0.029 µM (active) | 0.0229 µM (active) | – | 0.0448 µM (active)
